US4551547A, “Biocidal 2-aryl-1, 3-cyclopentanedione enol ester compounds” (Union Carbide Corporation, priority 1983, dated 1985)
Values after ≈ are worked out from the molar mass of the structure shown.

What was measured:
[1] = test system: Soybean; test: Post-emergent herbicidal test, soybean; type: in vivo; parameters: key: 1: no perceptible injury; 2: intermediate degrees of injury; 3: intermediate degrees of injury; 4: intermediate degrees of injury; 5: the plant was dead; conditions: 2500 parts per million, after ten days; for Post Emergent Herbicidal, Soybean: Table III
Procedure: (§1) Suspensions of the test compounds were prepared by dissolving one gram of compound in 50 milliliters of acetone in which had been dissolved 0.1 gram (10 percent of the weight of compound) of an alkylphenoxyethanol sufactant, as an emulsifying or dispersing agent. The resulting solution was mixed into 160 milliliters of water to give roughly 200 milliliters of a suspension containing the compound in finely divided form. The thus prepared stock suspension contained 0.5 percent by weight of compound. The test concentrations employed in the tests described below were obtained by diluting the stock suspension with water. The test procedures were as follows:
Experiments were also conducted to determine the phytotoxicity of representative compositions with respect to healthy fresh plants. Solutions of the compounds were prepared as described above to provide a concentration of 2500 parts per million of the test compound. The test plants were sprayed in accordance with the procedure described above for the Mite Foliage Spray Test so as to deliver approximately 100 milliliters of test solutions to the leaves of each plant tested. The sprayed plants and controls were set aside for approximately one hour to allow the solutions to dry and were then placed in the greenhouse. After ten days the plants were visually inspected to determine the extent of foliage injury. A rating of 1 indicates no perceptible injury; 5 indicates the plant was dead and ratings of 2, 3 and 4 indicate intermediate degrees of injury based upon the number and extent to which leaves were injured.

[2] = test system: egg of the two-spotted mite; test: Mite Ovicide Test (eggs); type: in vivo, Tetranychus urticae (Koch); parameters: key to Miticidal, Egg: A: Excellent Control; B: Partial Control; No Control; conditions: for LC50: Tetranychus urticae, Table III, ppm required for a 50 percent kill of eggs, read-out: Miticidal LD50, Egg
Procedure: Suspensions of the test compounds were prepared by dissolving one gram of compound in 50 milliliters of acetone in which had been dissolved 0.1 gram (10 percent of the weight of compound) of an alkylphenoxyethanol sufactant, as an emulsifying or dispersing agent. The resulting solution was mixed into 160 milliliters of water to give roughly 200 milliliters of a suspension containing the compound in finely divided form. The thus prepared stock suspension contained 0.5 percent by weight of compound. The test concentrations employed in the tests described below were obtained by diluting the stock suspension with water. The test procedures were as follows: The test organism was the egg of the two-spotted mite (Tetranychus urticae (Koch)), as obtained from adults reared on […] bean plants under controlled conditions of 80±5° F. and 50±5 percent relative humidity. Heavily infested leaves from a stock culture were placed on the primary leaves of two bean plants six to eight inches in height growing in a two-and-a-half inch clay pot. Females were allowed to oviposit for a period of 48 hours and the leaves of the infested plants were dipped in a solution containing 800 parts of tetraethyl pyrophosphate per million parts of water in order to destroy the reproductory forms and thus prevent further egg laying. […] The plants were allowed to dry thoroughly. The test compounds were formulated by diluting the stock suspension with water to give a suspension containing varying amounts of test compound per million parts of final formulation. The potted plants (one pot per compound) were placed on a revolving turntable and sprayed with 100-110 milliliters of test compound formulation by use of a DeVilbis spray gun set at 40 spig. air pressure. This application which lasted 30 seconds, was sufficient to wet the plants to run-off. As a control, 100-110 milliliters of a water solution containing acetone and emulsifier in the same concentrations as the test compound formulation, but containing no test compound, were also sprayed on plants infested with eggs. The sprayed plants were held at 80±5° F. and 50±5 percent relative humidity for four days, after which a microscopic examination was made of unhatched (dead) and hatched (living) eggs. In these tests the pesticidal activity of the compounds against mites and mite eggs was rated as follows: Tests were conducted in accordance with the procedures given at pages 17 to 21 supra. The results are expressed in the same manner as used in Table II, except with respect to miticidal activity. For mite adult and mite egg comparison purposes, results are given in parts per million (ppm) required for a 50 percent kill of mites or eggs, respectively.

[3] = test system: Mustard; test: Preliminary herbicide seed germination test (pre-emergent), mustard; type: in vivo, Brassica pincea var. foliosa (Florida broadleaf); parameters: key: 5: no seedling emerged; 4: few seedlings emerged and/or very severe stunting; 3: moderate reduction in stand and/or moderate stunting.; 2: very slight reduction in stand and/or slight stunting; 1: no injury, seedlings appear no different with respect to stand or growth than untreated controls; conditions: ten to twelve days after application
Procedure: as §1
The following seeds were used in this test:
Mustard--Brassica pincea var. foliosa (Florida broadleaf)
Two […] mixtures were prepared as follows:
Each of the above mixtures was rolled separately in 5 gallon containers for approximately one-half hour on ball mill to insure uniform mixing of seeds and soil. For each compound four 3-inch pots were filled with soil to within 11/2 inches of top of pots. To two of these pots were added 70 cc. of Mixture I. To the remaining 2 pots were added 70 cc. of Mixture II. The seed-soil mixture was tamped firmly, and the pots were removed to the greenhouse and watered lightly. About 2 hours after planting, 25 milliliters of the test formulation were added to one pot containing Mixture I and one pot containing Mixture II. An equal volume of a water solution containing acetone and an emulsifier in the same concentration as the herbicidal mixture but without the candidate herbicide was also added to each of the soil-seed mixtures. These pots are used as check or control units. The test compounds were formulated by diluting the stock suspension with water to obtain the desired concentration of the compound in parts per million of the final formulation. Each compound was tested at the same concentration. […] Ratings were made according to the following designations: […]

| Structure (SMILES) | Post-emergent Herbicidal, Soybean ([1]; Table II) | Miticidal, Egg ([2]; Table II, unhatched eggs after four days) | Pre-emergent Herbicidal, Mustard ([3]; Table II) | Post Emergent Herbicidal, Soybean [1] | LC50 [2] [µg/mL] | Pre-emergent Herbicidal, Mustard ([3]; Table III) |
| --- | --- | --- | --- | --- | --- | --- |
| CCCCCCCCCCCCCCCC(=O)OC1=C(c2cc(C)ccc2C)C(=O)C2CCCCC12 (stereo not drawn) [Compound 33] | 1 | A | 1 |  |  |  |
| CCCCCCCCCC(=O)OC1=C(c2ccccc2C)C(=O)C2CCCCC12 (stereo not drawn) [drawing 15] |  |  |  | 3 | 1 (≈ 2.52 µM) | 3 |
| CCCCCCCCCCCCCCCC(=O)OC1=C(c2ccccc2C)C(=O)C2CCCCC12 (stereo not drawn) [drawing 17] |  |  |  | 2 | 500 (≈ 1040 µM) | 3 |
| CCCCCCCCCC(=O)OC1=C(c2cc(C)ccc2C)C(=O)C2CCCCC12 (stereo not drawn) [drawing 19] |  |  |  | 1 | 8 (≈ 19.5 µM) | 1 |
| CCCCC(CC)C(=O)OC1=C(c2ccccc2C)C(=O)CC1 (stereo not drawn) [drawing 21] |  |  |  | 2 | 125 (≈ 398 µM) | 1 |
| CCCCC(CC)C(=O)OC1=C(c2ccccc2C)C(=O)C2CCCCC12 (stereo not drawn) [drawing 22] |  |  |  | 2 | 5 (≈ 13.6 µM) | 1 |
| Cc1ccccc1C1=C(OC(=O)C(C)(C)C)C2CCCCC2C1=O (stereo not drawn) [drawing 24] |  |  |  | 3 | 16 (≈ 49 µM) | 3 |
| CCCCCCCCCC(=O)OC1=C(c2ccccc2C)C(=O)c2ccccc21 [reference compound] |  |  |  | 0 | 500 (≈ 1280 µM) | 1 |
| CCCCCCCCCCCCCCCC(=O)OC1=C(c2ccccc2C)C(=O)c2ccccc21 [reference compound] |  |  |  | 0 | 60 (≈ 126 µM) | 1 |
| CCCCCCCCCC(=O)OC1=C(c2cc(C)ccc2C)C(=O)c2ccccc21 [reference compound] |  |  |  | 0 | 500 (≈ 1240 µM) | 1 |
| CCCCC(CC)C(=O)OC1=C(c2ccccc2C)C(=O)c2ccccc21 (stereo not drawn) [reference compound] |  |  |  | 0 | 60 (≈ 166 µM) | 1 |
| Cc1ccccc1C1=C(OC(=O)C(C)(C)C)c2ccccc2C1=O [reference compound] |  |  |  | 0 | 270 (≈ 843 µM) | 2 |
